Results from patent publication US7547697B2, “Alkyl-pyridazine derivatives as 11b-HSD1 inhibitors” (Hoffmann-La Roche Inc., priority 2006, dated 2009).

Molecular target: T1, human 11beta-HSD1 (Homo sapiens, UniProt P28845)
T1 construct: expressed in transfected cells; host or cells: HEK293 cells (ATCC CRL-1573), transient transfection with pcDNA3 construct; microsomal fraction used
Assay: Microsome assay (cortisone to cortisol conversion, ELISA detection)
Assay type: biochemical
Settings: microsomes from HEK293 cells transiently expressing human 11beta-HSD1; cortisone 50-200 nM, NADPH 1 mM, 60 min at 37° C.; read-out: h 11-beta-HSD 1 IC50
Description: The cDNA encoding the human 11beta-HSD1 protein was cloned into the expression vector pcDNA3 ([…]). This construct (for details see Alex Odermatt et al.; J Biol Chem., 1999, Vol. 274, Issue 40, 28762-28770) was used to transiently express the protein in HEK293 cells (ATCC number: CRL-1573, described in Graham, F. L., Smiley, J., Russell, W. C., Nairn, R.; (1977)) using lipofectamine. 48h after transfection cells were washed twice with ice-cold PBS (Phosphate buffered Saline). To 1 volume of cell suspension in PBS 2 volumes of ice-cold lysis buffer (50 mM Tris; pH 7.5; 1 mM EDTA; 100 mM NaCl) were added. The cells were lysed by Potter-homogenization (20 strokes). The resulting homogenate was sonicated with a tip sonicator (10% output; 2×30 sec.) and cleared by a low speed centrifugation (10 min×9000 g; 4° C.). The microsomal fraction was collected by a high speed centrifugation (60 min×110,000 g). […]
Microsomes isolated from HEK293 cells transiently expressing human 11beta-HSD1 (for details see above) were incubated in assay buffer (100 mM NaCl; 1 mM EDTA; 1 mM EGTA; 1 mM MgCl; 250 mM Sucrose; 20 mM Tris pH 7.4; Cortisone 50-200 nM and NADPH 1 mM) together with different concentrations of test substances. […] The amount of Cortisol produced in this assay was determined using a commercially available, ELISA-based Cortisol-detection kit (Distributed by Assay Design, Inc.). […]

T1 sequence (P28845 whole entry): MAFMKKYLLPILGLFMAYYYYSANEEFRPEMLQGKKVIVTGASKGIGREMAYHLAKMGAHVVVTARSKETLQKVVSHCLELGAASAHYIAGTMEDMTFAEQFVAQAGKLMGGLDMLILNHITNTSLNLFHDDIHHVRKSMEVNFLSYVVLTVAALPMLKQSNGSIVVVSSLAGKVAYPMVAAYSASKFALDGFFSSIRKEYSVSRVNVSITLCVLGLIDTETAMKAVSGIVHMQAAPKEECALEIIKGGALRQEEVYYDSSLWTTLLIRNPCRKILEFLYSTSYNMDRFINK

SMILES	IC50
CC(C)(C)Cc1cc2c(nn1)[C@@]1(C)CC[C@@H]2C1(C)C [Example 3, (1S,8R)-5-(2,2-Dimethyl-propyl)-1,11,11-trimethyl-3,4-diaza-tricyclo[6.2.1.0^2,7]undeca-2,4,6-triene]	14 nM
CC(C)(C)Cc1cc2c(nn1)CCCCCC2 [Example 1, 3-(2,2-Dimethyl-propyl)-5,6,7,8,9,10-hexahydro-cycloocta[c]pyridazine]	6 nM
